Laboratory results: US20240217990A1 (Gilead Sciences, Inc., priority 2021, published 2024)

How the values were obtained:
TLR8 = target: T1, TLR8 (Homo sapiens, UniProt Q9NR97); test: TLR8 human PBMC cell-based assay (antagonist, Compound A stimulated cytokine release); conditions: human PBMCs; TLR8 agonist Compound A 800 nM, 6 hours; cytokines (TNFa and IL 12p40) in supernatant; read-out: TLR-8 EC50
T1 construct: Human peripheral blood mononuclear cells (PBMCs) consist of lymphocytes, monocytes and dendritic cells that express TLR7, TLR8 and TLR9; endogenous in cells; host or cells: cryopreserved human PBMCs from healthy donors
T1 sequence (Q9NR97 27-1041): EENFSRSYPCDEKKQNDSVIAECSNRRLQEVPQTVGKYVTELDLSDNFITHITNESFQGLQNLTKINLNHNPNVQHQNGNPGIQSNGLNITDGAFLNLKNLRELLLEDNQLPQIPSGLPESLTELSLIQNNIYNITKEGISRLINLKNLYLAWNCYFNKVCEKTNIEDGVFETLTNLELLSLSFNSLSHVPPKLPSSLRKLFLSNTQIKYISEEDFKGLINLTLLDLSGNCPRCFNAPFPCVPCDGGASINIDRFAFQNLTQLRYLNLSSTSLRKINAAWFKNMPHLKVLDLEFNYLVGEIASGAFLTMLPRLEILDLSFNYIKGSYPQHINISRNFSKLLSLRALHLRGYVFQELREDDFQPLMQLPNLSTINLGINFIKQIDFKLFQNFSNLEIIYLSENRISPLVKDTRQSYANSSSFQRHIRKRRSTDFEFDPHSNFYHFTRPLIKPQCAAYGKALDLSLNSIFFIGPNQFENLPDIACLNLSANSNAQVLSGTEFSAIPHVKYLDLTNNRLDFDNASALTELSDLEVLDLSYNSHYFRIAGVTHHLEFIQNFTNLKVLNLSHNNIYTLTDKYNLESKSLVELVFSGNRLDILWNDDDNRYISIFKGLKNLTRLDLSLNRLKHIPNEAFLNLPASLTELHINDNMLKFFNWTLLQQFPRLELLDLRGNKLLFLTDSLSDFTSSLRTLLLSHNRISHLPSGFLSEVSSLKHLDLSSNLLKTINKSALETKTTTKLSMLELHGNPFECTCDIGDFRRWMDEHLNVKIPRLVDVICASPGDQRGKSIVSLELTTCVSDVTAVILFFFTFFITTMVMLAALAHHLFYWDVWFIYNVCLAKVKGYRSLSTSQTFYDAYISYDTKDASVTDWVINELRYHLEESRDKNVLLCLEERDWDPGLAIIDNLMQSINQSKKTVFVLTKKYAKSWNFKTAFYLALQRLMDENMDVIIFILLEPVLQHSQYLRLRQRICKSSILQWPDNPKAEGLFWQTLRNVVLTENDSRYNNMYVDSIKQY
Method in brief: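 Cryopreserved donor PBMCs (100,000/well, RPMI + 10% FBS) were preincubated 1 h with antagonist (10-point dose response, quadruplicate), then stimulated with Compound A (800 nM final) for 6 h at 37 °C. TNFa and IL-12p40 in supernatants were measured by electrochemiluminescence; sigmoidal fits gave EC50.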

TLR7 = target: T2, TLR7 (Homo sapiens, UniProt Q9NYK1); test: TLR7 human PBMC cell-based assay (antagonist, GS-986 stimulated cytokine release); conditions: human PBMCs; TLR7 agonist GS-986 400 nM, 6 hours; cytokines (IL-6 and IFNα) in supernatant; read-out: TLR-7 EC50
T2 construct: Human peripheral blood mononuclear cells (PBMCs) consist of lymphocytes, monocytes and dendritic cells that express TLR7, TLR8 and TLR9; endogenous in cells; host or cells: cryopreserved human PBMCs from healthy donors
T2 sequence (Q9NYK1 27-1049): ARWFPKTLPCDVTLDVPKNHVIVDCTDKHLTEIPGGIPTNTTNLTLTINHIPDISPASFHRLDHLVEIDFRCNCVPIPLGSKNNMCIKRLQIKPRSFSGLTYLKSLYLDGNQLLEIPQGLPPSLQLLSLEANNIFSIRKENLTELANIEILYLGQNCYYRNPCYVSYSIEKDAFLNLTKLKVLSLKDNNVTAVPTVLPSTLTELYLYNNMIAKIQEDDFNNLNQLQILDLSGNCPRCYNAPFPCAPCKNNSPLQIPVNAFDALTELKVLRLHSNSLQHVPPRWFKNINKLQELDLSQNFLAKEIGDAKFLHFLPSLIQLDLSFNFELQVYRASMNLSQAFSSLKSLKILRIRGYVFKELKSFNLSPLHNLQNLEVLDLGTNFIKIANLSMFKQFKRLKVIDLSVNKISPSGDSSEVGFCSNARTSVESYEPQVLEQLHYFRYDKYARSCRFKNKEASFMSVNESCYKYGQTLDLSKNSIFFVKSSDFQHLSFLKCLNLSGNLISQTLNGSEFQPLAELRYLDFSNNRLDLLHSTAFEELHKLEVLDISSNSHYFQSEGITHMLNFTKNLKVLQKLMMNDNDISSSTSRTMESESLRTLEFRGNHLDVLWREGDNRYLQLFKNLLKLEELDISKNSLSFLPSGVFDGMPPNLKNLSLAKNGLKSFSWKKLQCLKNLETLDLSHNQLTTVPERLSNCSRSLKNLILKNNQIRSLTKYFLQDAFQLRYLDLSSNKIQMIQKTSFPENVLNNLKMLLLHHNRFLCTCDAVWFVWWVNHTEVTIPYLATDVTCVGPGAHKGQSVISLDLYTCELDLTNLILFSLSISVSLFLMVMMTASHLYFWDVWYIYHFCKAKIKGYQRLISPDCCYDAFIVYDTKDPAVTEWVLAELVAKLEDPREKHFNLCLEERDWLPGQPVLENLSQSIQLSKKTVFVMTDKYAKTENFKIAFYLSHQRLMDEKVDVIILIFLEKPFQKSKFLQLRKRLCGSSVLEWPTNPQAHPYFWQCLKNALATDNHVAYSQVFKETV
Method in brief: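 EC50 derived by sigmoidal fitting of IL-6 and IFNα levels, quantified by electrochemiluminescence in supernatants of human PBMCs given 400 nM GS-986 for 6 h. Cells (100,000/well in RPMI-1640, 10% FBS) had received test antagonist 1 h beforehand, 10 doses in quadruplicate, at 37 °C.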

Structure (SMILES) | EC50 (TLR8) [nM] | EC50 (TLR7) [nM]
Cc1cc(-c2[nH]c3cc(C(=O)N4CCC5CCNC5C4)sc3c2C(C)C)cc(C)n1 (stereo not shown) [Example 30] | 30 | 35.9
Cc1cc(-c2[nH]c3cc(C4CCN(C(=O)C5CN6CCC5CC6)CC4)sc3c2C(C)C)cn2ncnc12 (stereo not shown) [Example 204] | 9.9 | 0.5
Cc1cc(-c2[nH]c3cc(C(=O)N[C@@H]4CCNC4)sc3c2C(C)C)cc(C)n1 [Example 5] | 654 | > 1000
Cc1cc(-c2[nH]c3cc(C(=O)N4CCNC(C#N)C4)sc3c2C(C)C)cc(C)n1 (stereo not shown) [Example 9] | 374 | 636
Cc1cc(-c2[nH]c3cc(C(=O)N4CCC[C@H]4CN4CCCC4)sc3c2C(C)C)cn2ncnc12 [Example 97] | 32.6 | 12.9
CO[C@@H]1CCN(C(=O)c2cc3[nH]c(-c4cc(C)nc(C)c4)c(C(C)C)c3s2)C[C@@H]1N [Example 25] | 136 | 64.4
CC(C)c1c(-c2ccc3nccn3c2)[nH]c2cc(C(=O)N3CCNCC3)sc12 [Example 67] | 131 | 6.3
Cc1cc(-c2[nH]c3cc(C(=O)N4CCNCC4)sc3c2C(C)C)cn2ncnc12 [Example 38, [6-isopropyl-5-(8-methyl-[1,2,4]triazolo[1,5-a]pyridin-6-yl)-4H-thieno[3,2-b]pyrrol-2-yl]-piperazin-1-yl-methanone] | 3.4 | 3.5
Cc1cc(-c2[nH]c3cc(C(=O)N(C)[C@H]4CCNC[C@H]4F)sc3c2C(C)C)cn2ncnc12 [Example 80] | 9.5 | 0.5
Cc1cc(-c2[nH]c3cc(C(=O)N4CCNCC4)sc3c2C(C)C)cn(C)c1=O [Example 34] | 3 | 9.7
Cc1cc(-c2[nH]c3cc(C(=O)N4CCC(N)CC4)sc3c2C(C)C)cc(C)n1 [Example 2] | 31.7 | 37.5
Cc1cc(-c2[nH]c3cc(C(=O)N4C[C@H](N)[C@@H]5CC[C@H]4C5)sc3c2C(C)C)cn2ncnc12 [Example 91] | 12.3 | 3
Cc1cc(-c2[nH]c3cc(C(=O)N4CCC[C@H](N)[C@@H]4C)sc3c2C(C)C)cn2ncnc12 [Example 87] | 13 | 0.5
Cc1cc(-c2[nH]c3cc(C(=O)N4CC5CCC(C4)N5)sc3c2C(C)C)cc(C)n1 [Example 16] | 15.1 | 43.5
Cc1cc(-c2[nH]c3cc(C(=O)N(C)[C@@H]4CNC[C@H]4F)sc3c2C(C)C)cn2ncnc12 [Example 60] | 30.8 | 4.1
Cc1cc(-c2[nH]c3cc(C(=O)N4CC5CC(C4)N5)sc3c2C(C)C)cc(C)n1 [Example 18] | 67.2 | 200

Now from value to compound:

EC50 (TLR8) [nM] | EC50 (TLR7) [nM] | Structure (SMILES)
3.52 | 0.44 | Cc1cc(-c2[nH]c3cc(C4CC4C(=O)N4CCNCC4)sc3c2C(C)C)cn2ncnc12 (stereo not shown) [Example 303]
11 | 6.6 | Cc1cc(-c2[nH]c3cc(C(=O)N(C)C4CCC(N5CC(F)C5)CC4)sc3c2C(C)C)cn2ncnc12 (stereo not shown) [Example 250]
137 | 44.3 | Cc1cc(-c2[nH]c3cc(C(=O)N(C)Cc4cccnc4)sc3c2C(C)C)cn2ncnc12 [Example 137]
12.3 | 0.3 | Cc1cc(-c2[nH]c3cc(C4CCC5(CC4)CN(C(=O)CN4CCCC4)C5)sc3c2C(C)C)cn2ncnc12 [Example 208]
9.6 | 0.4 | Cc1cc(-c2[nH]c3cc(C4CCC(N5CCC(O)C5)CC4)sc3c2C(C)C)cn2ncnc12 (stereo not shown) [Example 257]
5.14 | 2.36 | CC(C)c1c(-c2cc(C(F)(F)F)c3ncnn3c2)[nH]c2cc(C(=O)N3CCNCC3)sc12 [Example 305]
40.2 | 8.8 | Cc1cc(-c2[nH]c3cc(C(=O)N(C)C4CCN(CC#N)CC4)sc3c2C(C)C)cn2ncnc12 [Example 182]
11.9 | 2.3 | Cc1cc(-c2[nH]c3cc(C4CCC(N5CCC(OC(F)F)C5)CC4)sc3c2C(C)C)cn2ncnc12 (stereo not shown) [Example 258]
2.6 | 0.9 | Cc1cc(-c2[nH]c3cc(C(=O)N4CCN[C@@H](CO)C4)sc3c2C(C)C)cn2ncnc12 [Example 122]
12.8 | 3.9 | Cc1cc(-c2[nH]c3cc(C(=O)N4CCCCC4CN(C)C)sc3c2C(C)C)cn2ncnc12 (stereo not shown) [Example 107]
2 | 0.3 | Cc1cc(-c2[nH]c3cc(C4CCC(N5CC6(COC6)C5)CC4)sc3c2C(C)C)cn2ncnc12 (stereo not shown) [Example 260]
12 | 3 | Cc1cc(-c2[nH]c3cc(C(=O)N(C)C4CCC(N5CCN(CC(F)F)CC5)CC4)sc3c2C(C)C)cn2ncnc12 (stereo not shown) [Example 249]
116 | 1.7 | Cc1cc(-c2[nH]c3cc(C4=NC5(CCN(CC(N)=O)CC5)CO4)sc3c2C(C)C)cn2ncnc12 [Example 165]
38 | 3 | Cc1cc(-c2[nH]c3cc(C(=O)N(C)C4CNC4)sc3c2C(C)C)cn2ncnc12 [Example 115]
27.2 | 19 | Cc1cc(-c2[nH]c3cc(C(=O)N4CC[C@@H](CN)C4)sc3c2C(C)C)cn2ncnc12 [Example 146]
1.6 | 0.2 | Cc1cc(-c2[nH]c3cc(-c4ccc5nc(C6N[C@@H]7CC[C@H]6C7)[nH]c5c4)sc3c2C(C)C)cn2ncnc12 (stereo partly shown) [Example 212]
10 | 3.8 | Cc1cc(-c2[nH]c3cc(C4CCN(C(=O)[C@@H]5CCCN5C)CC4)sc3c2C(C)C)cn2ncnc12 [Example 200]
1.3 | 1.1 | Cc1c(-c2[nH]c3cc(-c4cnn(C5CCNCC5)c4)sc3c2C(C)C)cn2ncnc2c1C [Example 229]
47.8 | 18.9 | Cc1cc(-c2[nH]c3cc(C(=O)N4CCn5c(nnc5C(F)(F)F)C4)sc3c2C(C)C)cn2ncnc12 [Example 118]
2.3 | 0.5 | Cc1cc(-c2[nH]c3cc(-c4ccc(N5CCNCC5)nc4)sc3c2C(C)C)cn2ncnc12 [Example 210]
26.9 | 33.7 | Cc1cc(-c2[nH]c3cc(C(=O)N4C[C@@H]5NCCO[C@@H]5C4)sc3c2C(C)C)cn2ncnc12 [Example 132]
51.2 | 35 | Cc1cc(-c2[nH]c3cc(CN4CC5(C4)CS(=O)(=O)C5)sc3c2C(C)C)cn2ncnc12 [Example 271]
